ChEMBL document CHEMBL1145605, “Novel 2-imidazoles as potent and selective alpha1A adrenoceptor partial agonists” (Bioorg Med Chem Lett, 2008)
pEC50: −log10 of the molar value.

Experiments:
[1] = molecular target: T1, Alpha-1A adrenergic receptor (Homo sapiens, UniProt P35348); experiment: Agonist activity at human cloned adrenergic alpha-1A receptor expressed in CHO cells assessed as calcium mobilization by FLIPR; assay type: functional, cell-based
T1 sequence (P35348 whole entry): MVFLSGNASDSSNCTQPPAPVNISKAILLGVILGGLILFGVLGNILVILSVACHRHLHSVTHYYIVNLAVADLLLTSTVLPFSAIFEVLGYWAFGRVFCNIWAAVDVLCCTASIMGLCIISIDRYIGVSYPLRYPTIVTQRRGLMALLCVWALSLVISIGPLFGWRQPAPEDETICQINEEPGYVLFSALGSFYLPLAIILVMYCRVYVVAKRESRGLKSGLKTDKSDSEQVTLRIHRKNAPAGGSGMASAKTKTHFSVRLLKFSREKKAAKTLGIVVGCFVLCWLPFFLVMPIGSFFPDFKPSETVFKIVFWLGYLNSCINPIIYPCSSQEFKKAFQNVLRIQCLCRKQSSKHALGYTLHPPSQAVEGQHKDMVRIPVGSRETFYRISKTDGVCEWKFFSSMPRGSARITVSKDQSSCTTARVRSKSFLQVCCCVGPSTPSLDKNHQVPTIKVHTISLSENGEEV

[2] = Intrinsic clearance in human liver microsomes; assay type: ADME, Microsome
CYP3A4 = CYP3A4 (Homo sapiens, UniProt P08684); experiment: Inhibition of CYP3A4 at 10 uM; assay type: ADME
[3] = molecular target: T2, Alpha-1B adrenergic receptor (Homo sapiens, UniProt P35368); experiment: Agonist activity at human cloned adrenergic alpha-1B receptor expressed in CHO cells assessed as calcium mobilization by FLIPR; assay type: functional, cell-based
T2 sequence (P35368 whole entry): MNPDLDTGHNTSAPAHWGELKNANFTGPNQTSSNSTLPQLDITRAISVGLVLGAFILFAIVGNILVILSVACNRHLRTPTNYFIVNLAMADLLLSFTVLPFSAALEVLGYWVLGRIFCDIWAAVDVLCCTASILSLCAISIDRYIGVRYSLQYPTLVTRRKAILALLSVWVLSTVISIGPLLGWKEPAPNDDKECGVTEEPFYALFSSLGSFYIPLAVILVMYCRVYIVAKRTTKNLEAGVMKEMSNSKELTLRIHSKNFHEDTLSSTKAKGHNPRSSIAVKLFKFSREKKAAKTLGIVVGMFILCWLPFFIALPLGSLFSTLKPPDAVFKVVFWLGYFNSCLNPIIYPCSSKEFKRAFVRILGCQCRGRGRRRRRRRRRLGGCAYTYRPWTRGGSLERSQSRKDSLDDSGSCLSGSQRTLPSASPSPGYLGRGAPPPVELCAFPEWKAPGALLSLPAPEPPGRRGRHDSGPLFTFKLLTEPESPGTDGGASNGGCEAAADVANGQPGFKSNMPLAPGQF

[4] = molecular target: Voltage-gated inwardly rectifying potassium channel KCNH2 (Homo sapiens, UniProt Q12809); experiment: Activity at human ERG at 10 uM
[5] = Partition coefficient, log D at pH 7.4; assay type: physicochemical; conditions: octanol/water
[6] = molecular target: T3, Alpha-2A adrenergic receptor (Homo sapiens, UniProt P08913); experiment: Agonist activity at human cloned adrenergic alpha-2A receptor expressed in CHOK1 cells by beta-lactamase reporter gene assay; assay type: functional, cell-based, CHO-K1
T3 sequence (P08913 whole entry): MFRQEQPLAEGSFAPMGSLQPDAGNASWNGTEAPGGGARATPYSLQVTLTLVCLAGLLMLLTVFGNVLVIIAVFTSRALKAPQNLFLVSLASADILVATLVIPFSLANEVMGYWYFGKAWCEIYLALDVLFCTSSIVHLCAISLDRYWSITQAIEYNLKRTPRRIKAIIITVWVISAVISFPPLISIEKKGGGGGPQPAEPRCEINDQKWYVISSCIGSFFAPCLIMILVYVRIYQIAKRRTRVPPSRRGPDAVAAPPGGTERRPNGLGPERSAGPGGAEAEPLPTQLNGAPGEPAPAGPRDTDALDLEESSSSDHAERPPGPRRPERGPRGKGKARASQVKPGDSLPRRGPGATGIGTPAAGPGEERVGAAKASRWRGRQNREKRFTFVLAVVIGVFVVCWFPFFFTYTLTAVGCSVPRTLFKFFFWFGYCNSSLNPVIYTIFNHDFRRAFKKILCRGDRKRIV

CYP2D6 = CYP2D6 (Homo sapiens, UniProt P10635); experiment: Inhibition of CYP2D6 at 10 uM; assay type: ADME
[7] = molecular target: T4, Alpha-1A adrenergic receptor (Homo sapiens) (UniProt P35348); experiment: Agonist activity at human cloned adrenergic alpha-1A receptor expressed in CHO cells assessed as calcium mobilization by FLIPR relative to phenylephrine; assay type: functional, cell-based
T4 sequence (whole entry): T1 sequence (P35348 whole entry)

CYP2C19 = CYP2C19 (Homo sapiens, UniProt P33261); experiment: Inhibition of CYP2C19 at 10 uM; assay type: ADME
[8] = molecular target: T5, Alpha-1D adrenergic receptor (Homo sapiens, UniProt P25100); experiment: Agonist activity at human cloned adrenergic Alpha-1D receptor expressed in CHO cells assessed as calcium mobilization by FLIPR; assay type: functional, cell-based
T5 sequence (P25100 whole entry): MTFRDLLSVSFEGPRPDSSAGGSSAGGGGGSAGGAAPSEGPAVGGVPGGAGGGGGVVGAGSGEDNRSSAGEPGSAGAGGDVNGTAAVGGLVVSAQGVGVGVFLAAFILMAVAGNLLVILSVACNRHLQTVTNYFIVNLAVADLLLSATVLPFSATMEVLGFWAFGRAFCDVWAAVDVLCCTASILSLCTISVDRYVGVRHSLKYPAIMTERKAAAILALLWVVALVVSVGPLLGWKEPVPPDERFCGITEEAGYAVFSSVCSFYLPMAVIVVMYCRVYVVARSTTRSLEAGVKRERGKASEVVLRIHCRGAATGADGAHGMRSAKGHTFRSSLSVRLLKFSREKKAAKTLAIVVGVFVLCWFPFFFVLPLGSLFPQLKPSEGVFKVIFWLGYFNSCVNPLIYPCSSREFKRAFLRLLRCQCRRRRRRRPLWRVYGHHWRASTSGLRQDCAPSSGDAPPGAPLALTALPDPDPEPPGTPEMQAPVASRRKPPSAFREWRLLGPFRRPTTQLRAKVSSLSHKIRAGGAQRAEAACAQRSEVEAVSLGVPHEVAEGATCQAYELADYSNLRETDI

CYP2C9 = CYP2C9 (Homo sapiens, UniProt P11712); experiment: Inhibition of CYP2C9 at 10 uM; assay type: ADME
[9] = Intrinsic clearance per 10^6 cells in human hepatocytes; assay type: ADME, cell-based, Liver, Hepatocyte

Sequence of CYP2D6 (P10635 whole entry): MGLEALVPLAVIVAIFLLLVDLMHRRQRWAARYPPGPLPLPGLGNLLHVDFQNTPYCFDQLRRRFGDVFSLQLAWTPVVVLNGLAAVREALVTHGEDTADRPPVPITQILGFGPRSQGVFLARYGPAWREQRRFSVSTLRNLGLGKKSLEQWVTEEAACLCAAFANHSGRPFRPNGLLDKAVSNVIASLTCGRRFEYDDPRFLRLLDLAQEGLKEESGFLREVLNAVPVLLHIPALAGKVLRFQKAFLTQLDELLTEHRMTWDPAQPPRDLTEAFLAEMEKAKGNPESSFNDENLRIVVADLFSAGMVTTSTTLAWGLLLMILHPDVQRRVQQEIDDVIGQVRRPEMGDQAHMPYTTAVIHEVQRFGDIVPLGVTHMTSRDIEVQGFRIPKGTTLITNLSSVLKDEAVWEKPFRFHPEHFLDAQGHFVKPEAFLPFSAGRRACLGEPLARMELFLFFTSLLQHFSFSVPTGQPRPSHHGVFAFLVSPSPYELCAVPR
Sequence of CYP2C19 (P33261 whole entry): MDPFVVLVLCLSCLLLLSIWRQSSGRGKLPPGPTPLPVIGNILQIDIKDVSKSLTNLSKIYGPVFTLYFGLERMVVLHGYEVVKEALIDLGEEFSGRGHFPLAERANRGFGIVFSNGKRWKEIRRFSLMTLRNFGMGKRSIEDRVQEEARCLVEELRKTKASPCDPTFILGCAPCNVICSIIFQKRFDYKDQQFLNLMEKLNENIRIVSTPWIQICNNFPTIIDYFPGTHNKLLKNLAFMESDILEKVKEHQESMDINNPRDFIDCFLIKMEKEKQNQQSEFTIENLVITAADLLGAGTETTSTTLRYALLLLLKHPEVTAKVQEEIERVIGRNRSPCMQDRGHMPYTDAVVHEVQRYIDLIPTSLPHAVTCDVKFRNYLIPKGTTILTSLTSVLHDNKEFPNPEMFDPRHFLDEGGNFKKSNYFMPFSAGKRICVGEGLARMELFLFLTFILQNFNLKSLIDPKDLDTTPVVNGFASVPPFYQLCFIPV
Sequence of Voltage-gated inwardly rectifying potassium channel KCNH2 (Q12809 whole entry): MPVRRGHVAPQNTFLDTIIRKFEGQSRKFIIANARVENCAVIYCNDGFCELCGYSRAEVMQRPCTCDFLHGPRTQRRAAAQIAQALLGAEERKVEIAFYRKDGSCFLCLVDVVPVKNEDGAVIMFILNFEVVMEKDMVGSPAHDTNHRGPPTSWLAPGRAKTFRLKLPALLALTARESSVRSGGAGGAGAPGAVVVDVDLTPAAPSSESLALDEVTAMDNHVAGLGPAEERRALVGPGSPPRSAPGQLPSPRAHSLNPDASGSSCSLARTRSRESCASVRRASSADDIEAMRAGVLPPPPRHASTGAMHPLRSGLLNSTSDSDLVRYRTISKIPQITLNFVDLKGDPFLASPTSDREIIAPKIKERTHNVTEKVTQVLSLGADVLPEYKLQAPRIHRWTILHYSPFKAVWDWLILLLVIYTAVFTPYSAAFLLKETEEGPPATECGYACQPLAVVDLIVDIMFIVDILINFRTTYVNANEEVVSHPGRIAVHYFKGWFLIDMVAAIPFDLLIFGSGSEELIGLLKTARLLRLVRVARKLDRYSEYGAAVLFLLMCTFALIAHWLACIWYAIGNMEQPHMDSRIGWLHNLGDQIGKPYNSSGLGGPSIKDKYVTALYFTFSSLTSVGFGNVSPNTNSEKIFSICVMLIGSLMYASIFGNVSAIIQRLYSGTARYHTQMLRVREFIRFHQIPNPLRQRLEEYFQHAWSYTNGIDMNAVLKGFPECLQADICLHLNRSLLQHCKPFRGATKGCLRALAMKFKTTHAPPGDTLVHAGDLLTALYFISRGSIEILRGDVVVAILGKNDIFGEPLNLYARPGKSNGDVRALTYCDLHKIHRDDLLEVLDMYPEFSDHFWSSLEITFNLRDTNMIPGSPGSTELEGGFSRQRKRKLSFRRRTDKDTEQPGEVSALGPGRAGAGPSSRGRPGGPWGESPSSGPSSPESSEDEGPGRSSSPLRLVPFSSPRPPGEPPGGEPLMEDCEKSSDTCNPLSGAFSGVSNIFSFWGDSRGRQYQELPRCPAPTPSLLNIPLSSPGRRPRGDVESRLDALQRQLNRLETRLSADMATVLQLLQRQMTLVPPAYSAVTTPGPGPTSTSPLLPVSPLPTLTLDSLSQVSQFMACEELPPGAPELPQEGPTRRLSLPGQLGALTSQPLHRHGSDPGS
Sequence of CYP3A4 (P08684 whole entry): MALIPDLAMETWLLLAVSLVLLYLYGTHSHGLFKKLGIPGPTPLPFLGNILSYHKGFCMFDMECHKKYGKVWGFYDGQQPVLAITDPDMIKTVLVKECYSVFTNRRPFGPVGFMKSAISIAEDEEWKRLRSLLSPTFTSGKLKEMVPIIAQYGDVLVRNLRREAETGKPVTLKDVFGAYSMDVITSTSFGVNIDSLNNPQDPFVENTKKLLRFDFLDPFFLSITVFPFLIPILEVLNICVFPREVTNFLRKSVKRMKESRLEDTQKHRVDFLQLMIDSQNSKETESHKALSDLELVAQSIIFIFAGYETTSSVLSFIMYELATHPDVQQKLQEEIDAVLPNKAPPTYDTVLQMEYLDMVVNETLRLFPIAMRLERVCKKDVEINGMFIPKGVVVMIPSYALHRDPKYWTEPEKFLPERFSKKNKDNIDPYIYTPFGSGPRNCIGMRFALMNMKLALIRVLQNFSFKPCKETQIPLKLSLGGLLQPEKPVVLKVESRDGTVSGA
Sequence of CYP2C9 (P11712 whole entry): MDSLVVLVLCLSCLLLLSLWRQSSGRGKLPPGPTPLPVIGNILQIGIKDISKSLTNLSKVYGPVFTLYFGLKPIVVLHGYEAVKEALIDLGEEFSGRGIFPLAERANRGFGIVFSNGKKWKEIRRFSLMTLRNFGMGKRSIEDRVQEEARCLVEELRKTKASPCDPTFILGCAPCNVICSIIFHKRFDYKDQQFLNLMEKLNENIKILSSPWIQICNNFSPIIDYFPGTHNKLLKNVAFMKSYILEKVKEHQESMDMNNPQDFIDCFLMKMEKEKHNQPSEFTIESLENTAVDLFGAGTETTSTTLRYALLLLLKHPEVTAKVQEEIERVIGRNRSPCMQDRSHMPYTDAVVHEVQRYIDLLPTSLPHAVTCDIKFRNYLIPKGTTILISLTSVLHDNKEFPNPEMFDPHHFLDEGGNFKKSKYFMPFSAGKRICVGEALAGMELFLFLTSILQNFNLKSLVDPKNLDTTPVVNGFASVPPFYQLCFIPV

CS(=O)(=O)Nc1c(Cl)ccc2c1CCCC2c1ncc[nH]1 (stereo not drawn)
pEC50 [1]: 7.37
microsomal CLint [2]: < 7 µL/min/mg
inhibition at 10 µM (CYP3A4): < 25%
pEC50 [3]: < 5.00
Activity [4]: 0%
logD [5]: 1.5
pEC50 [6]: < 5.00
inhibition at 10 µM (CYP2D6): < 25%
Emax [7]: 61%
inhibition at 10 µM (CYP2C19): < 25%
pEC50 [8]: < 5.00
inhibition at 10 µM (CYP2C9): < 25%
hepatocyte CLint [9]: < 5 µL/min/1e6 cells
